Columns and labels:
[1] = tested on: transplanted Oryza sativa; assay: Test Example 1: effect on crop, application before weed generation in submerged conditions; type: in vivo; conditions: Application herbicide amount 320 g/ha; Seventeenth Table
Summary of the method: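 Pre-emergence water-surface application under 4 cm flooding, same day as sowing, with rice transplanted at 2.5 leaf stage. Dose given as g/ha. Plants grown at 25° C. to 30° C. and rated three weeks later on a 0 (≤5%) to 5 (≥90%) herbicidal-ratio scale.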

Abutilon theophrasti = assay: Test Example 4: herbicidal effect by application to foliage (diluvial soil, plastic box); type: in vivo; conditions: for M (Abutilon theophrasti) herbicidal effect grade: foliage application, 320 g/ha
Summary of the method: (§1)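 Seeds sown in sterilized diluvial soil, covered ~1.5 cm, grown 14 days in greenhouse at 25° C. to 30° C. Emulsion formulation diluted in water to set rate (g/ha) and sprayed onto stems and leaves. Effect scored visually 3 weeks later on 0–5 scale (5 = ≥90% herbicidal ratio, 0 = ≤5%).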

Veronica persica = assay: as above; type: in vivo; conditions: for R (Veronica persica) herbicidal effect grade: foliage application, 320 g/ha
Summary of the method: as §1

Apera spica-venti. = assay: as above; type: in vivo; conditions: for L (Apera spica-venti.) herbicidal effect grade: foliage application, 320 g/ha
Summary of the method: as §1

Galium spurium = assay: as above; type: in vivo; conditions: for Q (Galium spurium) herbicidal effect grade: foliage application, 320 g/ha
Summary of the method: as §1

Setaria viridis = assay: as above; type: in vivo; conditions: for G (Setaria viridis) herbicidal effect grade: foliage application, 320 g/ha
Summary of the method: as §1

Amaranthus retroflexus = assay: as above; type: in vivo; conditions: for N (Amaranthus retroflexus) herbicidal effect grade: foliage application, 320 g/ha
Summary of the method: as §1

Chenopodium album = assay: as above; type: in vivo; conditions: for O (Chenopodium album) herbicidal effect grade: foliage application, 320 g/ha
Summary of the method: as §1

Stellaria media = assay: as above; type: in vivo; conditions: for P (Stellaria media) herbicidal effect grade: foliage application, 320 g/ha
Summary of the method: as §1

Lolium multiflorum Lam. = assay: as above; type: in vivo; conditions: for K (Lolium multiflorum Lam.) herbicidal effect grade: foliage application, 320 g/ha
Summary of the method: as §1

Alopecurus myosuroides = assay: as above; type: in vivo; conditions: for J (Alopecurus myosuroides) herbicidal effect grade: foliage application, 320 g/ha
Summary of the method: as §1

Digitaria ciliaris = assay: as above; type: in vivo; conditions: for F (Digitaria ciliaris) herbicidal effect grade: foliage application, 320 g/ha
Summary of the method: as §1

[2] = tested on: Echinochloa crus-galli var. crus-galli; assay: as above; type: in vivo; conditions: for H (Echinochloa crus-galli var. crus-galli) herbicidal effect grade: foliage application, 320 g/ha
Summary of the method: as §1

Avena fatua = assay: as above; type: in vivo; conditions: for I (Avena fatua) herbicidal effect grade: foliage application, 320 g/ha
Summary of the method: as §1

Triticum aestivum = assay: Test Example 4: effect on crop by application to foliage (diluvial soil, plastic box); type: in vivo; conditions: for e (Triticum aestivum) effect on crop grade: foliage application, 320 g/ha
Summary of the method: as §1

Brassica campestris L. = assay: as above; type: in vivo; conditions: for g (Brassica campestris L.) effect on crop grade: foliage application, 320 g/ha
Summary of the method: as §1

Glycine max = assay: as above; type: in vivo; conditions: for c (Glycine max) effect on crop grade: foliage application, 320 g/ha
Summary of the method: as §1

Zea mays = assay: as above; type: in vivo; conditions: for b (Zea mays) effect on crop grade: foliage application, 320 g/ha
Summary of the method: as §1

[3] = tested on: Beta vulgaris ssp. vulgaris; assay: as above; type: in vivo; conditions: for f (Beta vulgaris ssp. vulgaris) effect on crop grade: foliage application, 320 g/ha
Summary of the method: as §1

[4] = tested on: directly sowed Oryza sativa; assay: as above; type: in vivo; conditions: for d (directly sowed Oryza sativa) effect on crop grade: foliage application, 320 g/ha
Summary of the method: as §1

[5] = application to foliage, application herbicide amount 320 g/ha

| SMILES | a: transplanted Oryza sativa (effect on crop grade) [1] | M (Abutilon theophrasti) herbicidal effect grade (Abutilon theophrasti) | R (Veronica persica) herbicidal effect grade (Veronica persica) | L (Apera spica-venti.) herbicidal effect grade (Apera spica-venti.) | Q (Galium spurium) herbicidal effect grade (Galium spurium) | G (Setaria viridis) herbicidal effect grade (Setaria viridis) | N (Amaranthus retroflexus) herbicidal effect grade (Amaranthus retroflexus) | O (Chenopodium album) herbicidal effect grade (Chenopodium album) | P (Stellaria media) herbicidal effect grade (Stellaria media) | K (Lolium multiflorum Lam.) herbicidal effect grade (Lolium multiflorum Lam.) | J (Alopecurus myosuroides) herbicidal effect grade (Alopecurus myosuroides) | F (Digitaria ciliaris) herbicidal effect grade (Digitaria ciliaris) | H (Echinochloa crus-galli var. crus-galli) herbicidal effect grade [2] | I (Avena fatua) herbicidal effect grade (Avena fatua) | e (Triticum aestivum) effect on crop grade (Triticum aestivum) | g (Brassica campestris L.) effect on crop grade (Brassica campestris L.) | c (Glycine max) effect on crop grade (Glycine max) | b (Zea mays) effect on crop grade (Zea mays) | f (Beta vulgaris ssp. vulgaris) effect on crop grade [3] | d (directly sowed Oryza sativa) effect on crop grade [4] | further results |
| --- | --- | --- | --- | --- | --- | --- | --- | --- | --- | --- | --- | --- | --- | --- | --- | --- | --- | --- | --- | --- | --- |
| COCc1nnc2c(C(=O)Nc3nnnn3C)ccc(C(F)(F)F)n12 [2-010, 3-(Methoxymethyl)-N-(1-methyl-1H-tetrazol-5-yl)-5-(trifluoromethyl)-[1,2,4]triazol o[4,3-a]pyridine-8-carboxamide] | 4 (Herbicidal ratio of 70% or more and less than 90%) | – | – | – | – | – | – | – | – | – | – | – | – | – | – | – | – | – | – | – | M: herbicidal effect on Abutilon theophrasti (Abutilon theophrasti; [5]): 5 (Herbicidal ratio of 90% or more (almost completely withered)); R: herbicidal effect on Veronica persica (Veronica persica; [5]): 5 (Herbicidal ratio of 90% or more (almost completely withered)); L: herbicidal effect on Apera spica-venti. (Apera spica-venti.; [5]): 2 (Herbicidal ratio of 20% or more and less than 40%); Q: herbicidal effect on Galium spurium (Galium spurium; [5]): 4 (Herbicidal ratio of 70% or more and less than 90%); G: herbicidal effect on Setaria viridis (Setaria viridis; [5]): 3 (Herbicidal ratio of 40% or more and less than 70%); N: herbicidal effect on Amaranthus retroflexus (Amaranthus retroflexus; [5]): 5 (Herbicidal ratio of 90% or more (almost completely withered)); O: herbicidal effect on Chenopodium album (Chenopodium album; [5]): 5 (Herbicidal ratio of 90% or more (almost completely withered)); P: herbicidal effect on Stellaria media (Stellaria media; [5]): 5 (Herbicidal ratio of 90% or more (almost completely withered)); K: herbicidal effect on Lolium multiflorum Lam. (Lolium multiflorum Lam.; [5]): 3 (Herbicidal ratio of 40% or more and less than 70%); J: herbicidal effect on Alopecurus myosuroides (Alopecurus myosuroides; [5]): 3 (Herbicidal ratio of 40% or more and less than 70%); F: herbicidal effect on Digitaria ciliaris (Digitaria ciliaris; [5]): 4 (Herbicidal ratio of 70% or more and less than 90%); H: herbicidal effect on Echinochloa crus-galli var. crus-galli [2, 5]: 5 (Herbicidal ratio of 90% or more (almost completely withered)); I: herbicidal effect on Avena fatua (Avena fatua; [5]): 4 (Herbicidal ratio of 70% or more and less than 90%); melting point: 205 to 209 °C; e: effect on crop, Triticum aestivum (Triticum aestivum; [5]): 3 (Herbicidal ratio of 40% or more and less than 70%); g: effect on crop, Brassica campestris L. (Brassica campestris L.; [5]): 5 (Herbicidal ratio of 90% or more (almost completely withered)); d: effect on crop, Glycine max (Glycine max; [5]): 4 (Herbicidal ratio of 70% or more and less than 90%); c: effect on crop, Zea mays (Zea mays; [5]): 3 (Herbicidal ratio of 40% or more and less than 70%); f: effect on crop, Beta vulgaris ssp. vulgaris [3, 5]: 5 (Herbicidal ratio of 90% or more (almost completely withered)); b: effect on crop, directly sowed Oryza sativa [4, 5]: 5 (Herbicidal ratio of 90% or more (almost completely withered)) |
| CC(C)[S+]([O-])c1nnc2c(C(=O)Nc3nnnn3C)ccc(C(F)(F)F)n12 (stereo not shown) [2-032] | 5 (Herbicidal ratio of 90% or more (almost completely withered)) | 5 (Herbicidal ratio of 90% or more (almost completely withered)) | 5 (Herbicidal ratio of 90% or more (almost completely withered)) | 5 (Herbicidal ratio of 90% or more (almost completely withered)) | 5 (Herbicidal ratio of 90% or more (almost completely withered)) | 5 (Herbicidal ratio of 90% or more (almost completely withered)) | 5 (Herbicidal ratio of 90% or more (almost completely withered)) | 5 (Herbicidal ratio of 90% or more (almost completely withered)) | 5 (Herbicidal ratio of 90% or more (almost completely withered)) | 4 (Herbicidal ratio of 70% or more and less than 90%) | 3 (Herbicidal ratio of 40% or more and less than 70%) | 5 (Herbicidal ratio of 90% or more (almost completely withered)) | 5 (Herbicidal ratio of 90% or more (almost completely withered)) | 5 (Herbicidal ratio of 90% or more (almost completely withered)) | 5 (Herbicidal ratio of 90% or more (almost completely withered)) | 5 (Herbicidal ratio of 90% or more (almost completely withered)) | 5 (Herbicidal ratio of 90% or more (almost completely withered)) | 5 (Herbicidal ratio of 90% or more (almost completely withered)) | 5 (Herbicidal ratio of 90% or more (almost completely withered)) | 5 (Herbicidal ratio of 90% or more (almost completely withered)) | – |
| Cn1nnnc1NC(=O)c1ccc(C(F)(F)F)n2c(C[S+](C)[O-])nnc12 (stereo not shown) [2-033] | 4 (Herbicidal ratio of 70% or more and less than 90%) | 5 (Herbicidal ratio of 90% or more (almost completely withered)) | 5 (Herbicidal ratio of 90% or more (almost completely withered)) | 5 (Herbicidal ratio of 90% or more (almost completely withered)) | 5 (Herbicidal ratio of 90% or more (almost completely withered)) | 5 (Herbicidal ratio of 90% or more (almost completely withered)) | 5 (Herbicidal ratio of 90% or more (almost completely withered)) | 5 (Herbicidal ratio of 90% or more (almost completely withered)) | 5 (Herbicidal ratio of 90% or more (almost completely withered)) | 4 (Herbicidal ratio of 70% or more and less than 90%) | 4 (Herbicidal ratio of 70% or more and less than 90%) | 5 (Herbicidal ratio of 90% or more (almost completely withered)) | 5 (Herbicidal ratio of 90% or more (almost completely withered)) | 5 (Herbicidal ratio of 90% or more (almost completely withered)) | 4 (Herbicidal ratio of 70% or more and less than 90%) | 5 (Herbicidal ratio of 90% or more (almost completely withered)) | 4 (Herbicidal ratio of 70% or more and less than 90%) | 5 (Herbicidal ratio of 90% or more (almost completely withered)) | 5 (Herbicidal ratio of 90% or more (almost completely withered)) | 5 (Herbicidal ratio of 90% or more (almost completely withered)) | – |

Reference: patent publication US9708314B2, “Heterocyclic amide compound” (NISSAN CHEMICAL INDUSTRIES, LTD., priority 2013, dated 2017)
